Each molecule was assayed on HCV 1b-377-neo replicon cells (assay: HCV replicon assay (HCV 1b-377-neo replicon cells)). Details: Hepatitis C virus, read-out: EC50 range against HCV 1b (Range).
Type: cell-based, Hepatitis C virus genotype 1b
Experimental: An HCV Replion assay was utilized in the present disclosure, and was prepared, conducted and validated as described in commonly owned PCT/US2006/022197 and in O'Boyle et. al. Antimicrob Agents Chemother. April 2005;49(4): 1346-53.
HCV 1b-377-neo replicon cells were used to test the currently described compound series as well as cells resistant to compound A due to a Y2065H mutation in NS5A (described in application PCT/US2006/022197). The compounds tested were determined to have more than 10-fold less inhibitory activity on cells resistant to compound A than wild-type cells indicating a related mechanism of action between the two compound series. Thus, the compounds of the present disclosure can be effective to inhibit the function of the HCV NS5A protein and are understood to be as effective in combinations as previously described in application PCT/US2006/022197 and commonly owned WO/04014852. Further, the compounds of the present disclosure can be effective against the HCV 1b genotype. It should also be understood that the compounds of the present disclosure can inhibit multiple genotypes of HCV. […] In one embodiment compounds of the present disclosure are active against the 1a, 1b, 2a, 2b, 3a, 4a, and 5a genotypes.
In the case of `COC(=O)N[C@@H](C(=O)N1CCC[C@H]1c1ncc(-c2ccc(-c3ncc(-c4cnc([C@@H]5CCCN5C(=O)[C@H](NC(=O)OC)c5ccccc5)[nH]4)cn3)cc2)[nH]1)c1ccccc1` [Example 152j-2, methyl ((1R)-2-((2S)-2-(5-(2-(4-(2-((2S)-1-((2R)-2-((methoxycarbonyl)a-mino)-2-phenylacetyl)-2-pyrrolidinyl)-1H-imidazol-5-yl)phenyl)-5-pyrimidinyl)-1H-imidazol-2-yl)-1-pyrrolidinyl)-2-oxo-1-phenylethyl)carba-mate], the EC50 is reported as 0.01 to 0.999 nM.
`COC(=O)N[C@@H](C(=O)N1CCC[C@H]1c1ncc(-c2ccc(-c3ncc(-c4cnc([C@@H]5CCCN5C(=O)Cc5cccnc5)[nH]4)cn3)cc2)[nH]1)c1ccccc1` [Example 152j-3, methyl ((1R)-2-oxo-1-phenyl-2-((2S)-2-(5-(4-(5-(2-((2S)-1-(3-pyridinylacetyl)-2-pyrrolidinyl)-1H-imidazol-5-yl)-2-pyrimidinyl)phenyl)-1H-imidazol-2-yl)-1-pyrrolidinyl)ethyl)car-bamate] was tested, and the EC50 was 0.01 to 0.999 nM.
`O=C([C@@H](c1ccccc1)N1CCCCC1)N1CCC[C@H]1c1ncc(-c2ccc(-c3ncc(-c4cnc([C@@H]5CCCN5C(=O)[C@@H](c5ccccc5)N5CCCCC5)[nH]4)cn3)cc2)[nH]1` [Example 152j-5, 5-(2-((2S)-1-((2R)-2-phenyl-2-(1-piperidinyl)acetyl)-2-pyrrolidinyl)-1H-imidazol-5-yl)-2-(4-(2-((2S)-1-((2R)-2-phenyl-2-(1-piperidinyl)acetyl)-2-pyrrolidinyl)-1H-imidazol-4-yl)phenyl)pyrimidine] gave an EC50 of 0.01 to 0.999 nM.
In the case of `C[C@@H](c1ncc(-c2ccc(-c3ncc(-c4cnc([C@@H]5CCCN5C(=O)[C@@H](c5ccccc5)N5CCCCC5)[nH]4)cn3)cc2)[nH]1)N(C)C(=O)[C@@H](c1ccccc1)N1CCCCC1` [Example 152j-6, (2R)-N-methyl-2-phenyl-N-((1S)-1-(4-(4-(5-(2-((2S)-1-((2R)-2-phenyl-2-(1-piperidinyl)acetyl)-2-pyrrolidinyl)-1H-imidazol-5-yl)-2-pyrimidinyl)phenyl)-1H-imidazol-2-yl)ethyl)-2-(1-piperidinyl)acetamide], the EC50 is reported as 0.01 to 0.999 nM.
For `CN(C)[C@@H](C(=O)N1CCC[C@H]1c1ncc(-c2ccc(-c3cnc(-c4cnc([C@@H]5CCCN5C(=O)[C@@H](c5ccccc5)N(C)C)[nH]4)cn3)cc2)[nH]1)c1ccccc1` [Example 152j-7, (1R)-2-((2S)-2-(5-(5-(4-(2-((2S)-1-((2R)-2-(dimethylamino)-2-phenylacetyl)-2-pyrrolidinyl)-1H-imidazol-5-yl)phenyl)-2-pyrazinyl)-1H-imidazol-2-yl)-1-pyrrolidinyl)-N,N-dimethyl-2-oxo-1-phenylethanamine], the EC50 was 1 to 99 nM.
`COC(=O)N[C@@H](C(=O)N1CCC[C@H]1c1ncc(-c2ccc(-c3cnc(-c4cnc([C@@H]5CCCN5C(=O)[C@H](NC(=O)OC)c5ccccc5)[nH]4)cn3)cc2)[nH]1)c1ccccc1` [Example 152j-8, methyl ((1R)-2-((2S)-2-(5-(5-(4-(2-((2S)-1-((2R)-2-((methoxycarbonyl)a-mino)-2-phenylacetyl)-2-pyrrolidinyl)-1H-imidazol-5-yl)phenyl)-2-pyrazinyl)-1H-imidazol-2-yl)-1-pyrrolidinyl)-2-oxo-1-phenylethyl)carbamate] gave an EC50 of 0.01 to 0.999 nM.
For `CN(C)[C@@H](C(=O)N1CCC[C@H]1c1ncc(-c2ccc(-c3ccc(-c4cnc([C@@H]5CCCN5C(=O)[C@@H](c5ccccc5)N(C)C)[nH]4)nn3)cc2)[nH]1)c1ccccc1` [Example 152j-9, (1R)-2-((2S)-2-(5-(6-(4-(2-((2S)-1-((2R)-2-(dimethylamino)-2-phenylacetyl)-2-pyrrolidinyl)-1H-imidazol-5-yl)phenyl)-3-pyridazinyl)-1H-imidazol-2-yl)-1-pyrrolidinyl)-N,N-dimethyl-2-oxo-1-phenylethanamine], the EC50 was 1 to 99 nM.
Molecule `COC(=O)N[C@@H](C(=O)N1CCC[C@H]1c1ncc(-c2ccc(-c3ccc(-c4cnc([C@@H]5CCCN5C(=O)[C@H](NC(=O)OC)c5ccccc5)[nH]4)nn3)cc2)[nH]1)c1ccccc1` [Example 152j-10, methyl ((1R)-2-((2S)-2-(5-(6-(4-(2-((2S)-1-((2R)-2-((methoxycarbonyl)a-mino)-2-phenylacetyl)-2-pyrrolidinyl)-1H-imidazol-5-yl)phenyl)-3-pyridazinyl)-1H-imidazol-2-yl)-1-pyrrolidinyl)-2-oxo-1-phenylethyl) carba-mate] has an EC50 of 1 to 99 nM.
`C[C@H](NC(=O)[C@@H](c1ccccc1)N(C)C)c1ncc(-c2ccc(-c3ccc(-c4cnc([C@@H]5CCCN5C(=O)[C@@H](c5ccccc5)N(C)C)[nH]4)cn3)cc2)[nH]1` [Example 152j-11, (2R)-2-(dimethylamino)-N-((1S)-1-(5-(4-(5-(2-((2S)-1-((2R)-2-(dimethylamino)-2-phenylacetyl)-2-pyrrolidinyl)-1H-imidazol-5-yl)-2-pyridinyl)phenyl)-1H-imidazol-2-yl)ethyl)-2-phenylacetamide] showed an EC50 of 0.01 to 0.999 nM.
`COC(=O)N[C@@H](C(=O)N[C@@H](C)c1ncc(-c2ccc(-c3ccc(-c4cnc([C@@H]5CCCN5C(=O)[C@H](NC(=O)OC)c5ccccc5)[nH]4)cn3)cc2)[nH]1)c1ccccc1` [Example 152j-12, methyl ((1R)-2-((2S)-2-(5-(6-(4-(2-((1S)-1-(((2R)-2-((methoxycarbonyl)a-mino)-2-phenyl-acetyl)amino)eth-yl)-1H-imidazol-5-yl)phenyl)-3-pyridinyl)-1H-imidazol-2-yl)-1-pyrrolidinyl)-2-oxo-1-phenylethyl)carbamate] gave an EC50 of 0.01 to 0.999 nM.
`C[C@H](NC(=O)[C@@H](c1ccccc1)N(C)C)c1ncc(-c2ccc(-c3ccc(-c4cnc([C@@H]5CCCN5C(=O)[C@@H](c5ccccc5)N(C)C)[nH]4)nn3)cc2)[nH]1` [Example 152j-13, (2R)-2-(dimethylamino)-N-((1S)-1-(5-(4-(6-(2-((2S)-1-((2R)-2-(dimethylamino)-2-phenylacetyl)-2-pyrrolidinyl)-1H-imidazol-5-yl)-3-pyridazinyl)phenyl)-1H-imidazol-2-yl)ethyl)-2-phenylacetamide] showed an EC50 of 1 to 99 nM.
`COC(=O)N[C@@H](C(=O)N[C@@H](C)c1ncc(-c2ccc(-c3ccc(-c4cnc([C@@H]5CCCN5C(=O)[C@H](NC(=O)OC)c5ccccc5)[nH]4)nn3)cc2)[nH]1)c1ccccc1` [Example 152j-14, methyl ((1R)-2-((2S)-2-(5-(6-(4-(2-((1S)-1-(((2R)-2-((methoxycarbonyl)a-mino)-2-phenyl-acetyl)amino)eth-yl)-1H-imidazol-5-yl)phenyl)-3-pyridazinyl)-1H-imidazol-2-yl)-1-pyrrolidinyl)-2-oxo-1-phenylethyl)carbamate] gave an EC50 of 1 to 99 nM.
`COC(=O)N[C@@H](C(=O)N[C@@H](C)c1ncc(-c2ccc(-c3ncc(-c4cnc([C@@H]5CCCN5C(=O)[C@H](NC(=O)OC)c5ccccc5)[nH]4)cn3)cc2)[nH]1)c1ccccc1` [Example 152j-15, methyl ((1R)-2-((2S)-2-(5-(2-(4-(2-((1S)-1-(((2R)-2-((methoxycarbonyl)a-mino)-2-phenyl-acetyl)amino)eth-yl)-1H-imidazol-5-yl)phenyl)-5-pyrimidinyl)-1H-imidazol-2-yl)-1-pyrrolidinyl)-2-oxo-1-phenylethyl)carbamate] showed an EC50 of 0.01 to 0.999 nM.
Work on `C[C@H](NC(=O)[C@@H](c1ccccc1)N(C)C)c1ncc(-c2cnc(-c3ccc(-c4cnc([C@@H]5CCCN5C(=O)[C@@H](c5ccccc5)N(C)C)[nH]4)cc3)nc2)[nH]1` [Example 152j-16, (2R)-2-(dimethylamino)-N-((1S)-1-(5-(2-(4-(2-((2S)-1-((2R)-2-(dimethylamino)-2-phenylacetyl)-2-pyrrolidinyl)-1H-imidazol-5-yl)phenyl)-5-pyrimidinyl)-1H-imidazol-2-yl)ethyl)-2-phenylacetamide] yielded an EC50 of 0.01 to 0.999 nM.
Work on `COC(=O)N[C@@H](C(=O)N[C@@H](C)c1ncc(-c2cnc(-c3ccc(-c4cnc([C@@H]5CCCN5C(=O)[C@H](NC(=O)OC)c5ccccc5)[nH]4)cc3)nc2)[nH]1)c1ccccc1` [Example 152j-17, methyl ((1R)-2-((2S)-2-(5-(4-(5-(2-((1S)-1-(((2R)-2-((methoxycarbonyl)a-mino)-2-phenyl-acetyl)amino)eth-yl)-1H-imidazol-5-yl)-2-pyrimidinyl)phenyl)-1H-imidazol-2-yl)-1-pyrrolidinyl)-2-oxo-1-phenylethyl)carba-mate] yielded an EC50 of 0.01 to 0.999 nM.
Work on `C[C@H](NC(=O)[C@@H](c1ccccc1)N(C)C)c1ncc(-c2cnc(-c3ccc(-c4cnc([C@@H]5CCCN5C(=O)[C@@H](c5ccccc5)N(C)C)[nH]4)cc3)cn2)[nH]1` [Example 152j-18, (2R)-2-(dimethylamino)-N-((1S)-1-(5-(5-(4-(2-((2S)-1-((2R)-2-(dimethylamino)-2-phenylacetyl)-2-pyrrolidinyl)-1H-imidazol-5-yl)phenyl)-2-pyrazinyl)-1H-imidazol-2-yl)ethyl)-2-phenylacetamide] yielded an EC50 of 0.01 to 0.999 nM.
`COC(=O)N[C@@H](C(=O)N[C@@H](C)c1ncc(-c2cnc(-c3ccc(-c4cnc([C@@H]5CCCN5C(=O)[C@H](NC(=O)OC)c5ccccc5)[nH]4)cc3)cn2)[nH]1)c1ccccc1` [Example 152j-19, methyl ((1R)-2-((2S)-2-(5-(4-(5-(2-((1S)-1-(((2R)-2-((methoxycarbonyl)a-mino)-2-phenyl-acetyl)amino)eth-yl)-1H-imidazol-5-yl)-2-pyrazinyl)phenyl)-1H-imidazol-2-yl)-1-pyrrolidinyl)-2-oxo-1-phenylethyl)carbamate] showed an EC50 of 0.01 to 0.999 nM.

From patent US7659270B2, “Hepatitis C virus inhibitors” (Bristol-Myers Squibb Company, priority 2006, dated 2010)
